The source made the active and inactive calls. No cut-off for these calls is given here.
Key:
Acetylcholinesterase = Acetylcholinesterase (Electrophorus electricus, UniProt O42275); test: Inhibition of electric eel AChE using acetylthiocholine as substrate preincubated for 5 mins followed by substrate addition measured after 20 mins by Ellman's method
[1] = molecular target: T1, Amine oxidase [flavin-containing] B (Rattus norvegicus, UniProt P19643); test: Non-competitive inhibition of MAO-B extracted from Wistar rat liver at 5 to 500 uM using varying level of 4-trifluoromethyl benzylamine as substrate preincubated for 20 mins followed by substrate addition measured after 90 mins by microplate reader assay; conditions: 1.5 h
T1 sequence (P19643 whole entry): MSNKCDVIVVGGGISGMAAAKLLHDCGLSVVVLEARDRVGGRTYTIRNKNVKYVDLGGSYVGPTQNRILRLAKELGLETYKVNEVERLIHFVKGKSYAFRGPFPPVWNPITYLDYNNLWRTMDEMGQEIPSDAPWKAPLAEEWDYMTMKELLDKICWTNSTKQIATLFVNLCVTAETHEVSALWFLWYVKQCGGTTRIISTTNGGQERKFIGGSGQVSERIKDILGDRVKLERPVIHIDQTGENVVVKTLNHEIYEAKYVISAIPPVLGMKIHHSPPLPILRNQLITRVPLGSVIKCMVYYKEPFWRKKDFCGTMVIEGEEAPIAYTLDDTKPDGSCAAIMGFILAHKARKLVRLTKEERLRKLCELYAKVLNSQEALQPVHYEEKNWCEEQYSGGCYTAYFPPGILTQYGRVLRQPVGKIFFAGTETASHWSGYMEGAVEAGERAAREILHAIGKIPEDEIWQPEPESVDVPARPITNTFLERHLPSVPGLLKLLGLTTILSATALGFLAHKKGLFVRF

Cholinesterase = Cholinesterase (Equus caballus, UniProt P81908); test: Inhibition of equine serum BuChE using butyrylthiocholine as substrate preincubated for 5 mins followed by substrate addition measured after 20 mins by Ellman's method
Chain of Cholinesterase (P81908 whole entry): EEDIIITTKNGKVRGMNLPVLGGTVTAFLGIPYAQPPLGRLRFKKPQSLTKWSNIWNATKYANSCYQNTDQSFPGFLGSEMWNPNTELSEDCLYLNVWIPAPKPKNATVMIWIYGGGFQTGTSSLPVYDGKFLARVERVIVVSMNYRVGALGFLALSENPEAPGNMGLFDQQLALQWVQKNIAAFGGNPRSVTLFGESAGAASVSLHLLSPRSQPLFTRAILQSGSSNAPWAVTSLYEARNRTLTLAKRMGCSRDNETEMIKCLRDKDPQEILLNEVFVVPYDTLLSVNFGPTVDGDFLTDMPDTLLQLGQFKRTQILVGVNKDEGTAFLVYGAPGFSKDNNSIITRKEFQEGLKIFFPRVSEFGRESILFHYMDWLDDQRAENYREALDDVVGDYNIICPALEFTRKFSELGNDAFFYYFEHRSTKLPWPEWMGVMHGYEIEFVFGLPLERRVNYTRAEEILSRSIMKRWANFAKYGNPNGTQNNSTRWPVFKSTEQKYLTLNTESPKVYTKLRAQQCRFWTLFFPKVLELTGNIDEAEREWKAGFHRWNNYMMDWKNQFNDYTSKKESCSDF

[2] = molecular target: T1, Amine oxidase [flavin-containing] B; test: Inhibition of MAO-B in Wistar rat liver using 4-trifluoromethyl benzylamine as substrate preincubated for 20 mins followed by substrate addition measured after 90 mins by microplate reader assay; format: tissue-based
[3] = Antioxidant activity assessed as reduction of colourless Fe3+-TPTZ complex to coloured Fe2+-TPTZ complex measured after 5 mins by FRAP assay; format: functional
[4] = molecular target: Acetylcholinesterase (Electrophorus electricus) (UniProt O42275); test: Mixed-type inhibition of electric eel AChE at 0.5 to 50 nM using varying level of acetylthiocholine as substrate preincubated for 5 mins followed by substrate addition measured after 20 mins by Ellman's method
Chain of Acetylcholinesterase (Electrophorus electricus) (O42275 24-633 limits assumed): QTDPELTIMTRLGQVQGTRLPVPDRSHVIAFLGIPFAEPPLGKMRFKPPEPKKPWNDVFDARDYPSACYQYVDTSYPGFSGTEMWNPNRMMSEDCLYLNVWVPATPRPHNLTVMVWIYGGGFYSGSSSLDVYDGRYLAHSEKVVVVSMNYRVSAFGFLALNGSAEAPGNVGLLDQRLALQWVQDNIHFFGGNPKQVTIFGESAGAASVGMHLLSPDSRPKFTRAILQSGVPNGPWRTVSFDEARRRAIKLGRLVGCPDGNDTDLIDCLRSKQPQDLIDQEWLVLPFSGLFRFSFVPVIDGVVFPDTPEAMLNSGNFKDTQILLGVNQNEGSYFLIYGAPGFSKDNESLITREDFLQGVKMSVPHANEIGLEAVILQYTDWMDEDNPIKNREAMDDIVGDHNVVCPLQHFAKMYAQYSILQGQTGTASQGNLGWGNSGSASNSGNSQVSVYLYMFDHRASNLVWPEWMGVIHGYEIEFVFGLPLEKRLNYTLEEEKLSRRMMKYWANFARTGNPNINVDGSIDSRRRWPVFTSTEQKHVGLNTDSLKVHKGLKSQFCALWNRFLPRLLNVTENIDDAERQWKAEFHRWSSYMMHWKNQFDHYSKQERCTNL

Chain of Acetylcholinesterase (O42275 whole entry): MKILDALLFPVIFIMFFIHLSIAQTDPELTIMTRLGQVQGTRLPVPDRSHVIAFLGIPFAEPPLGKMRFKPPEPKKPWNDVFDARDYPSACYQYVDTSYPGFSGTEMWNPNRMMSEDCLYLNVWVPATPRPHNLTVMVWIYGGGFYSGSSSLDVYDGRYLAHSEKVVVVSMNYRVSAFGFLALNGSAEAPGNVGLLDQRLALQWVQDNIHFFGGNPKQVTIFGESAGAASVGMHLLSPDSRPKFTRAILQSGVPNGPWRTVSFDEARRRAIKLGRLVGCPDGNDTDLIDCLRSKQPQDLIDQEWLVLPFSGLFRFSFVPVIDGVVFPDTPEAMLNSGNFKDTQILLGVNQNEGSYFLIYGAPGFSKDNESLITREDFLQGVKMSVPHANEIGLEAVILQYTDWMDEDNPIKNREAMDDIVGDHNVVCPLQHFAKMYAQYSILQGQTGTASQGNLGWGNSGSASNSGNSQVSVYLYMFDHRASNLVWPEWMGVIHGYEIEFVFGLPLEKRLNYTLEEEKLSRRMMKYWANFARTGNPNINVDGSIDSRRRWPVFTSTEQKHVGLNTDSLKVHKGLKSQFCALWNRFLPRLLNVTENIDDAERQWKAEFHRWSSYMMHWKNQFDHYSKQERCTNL

| Structure (SMILES) | IC50 (Acetylcholinesterase) [µM] | inhibition (INH) [1] | IC50 (Cholinesterase) [µM] | IC50 [2] [µM] | Activity [3] [mmol/g] | inhibition [4] |
| --- | --- | --- | --- | --- | --- | --- |
| COc1cc(C2CC(=O)Oc3c2ccc(O)c3O)ccc1O (stereo not drawn) | 10.9 | Active | 134 | 0.257 | 10.1 |  |
| O=c1cc(-c2ccc(O)c(O)c2)c2ccc(O)cc2o1 | 8.86 |  | > 300 | > 300 | 9.71 |  |
| COc1ccc(C2CC(=O)Oc3cc(O)ccc32)cc1 (stereo not drawn) | > 50 |  | > 300 | > 300 | 0.896 |  |
| O=c1cc(-c2ccc(O)c(O)c2)c2cc(O)cc(O)c2o1 | 7 |  | 208 | 22.2 | 10.5 |  |
| O=C1O[C@H]([C@@H](O)CO)C(O)=C1O |  |  |  |  | 9.87 |  |
| O=C1CC(c2ccc(O)cc2)c2c(O)cc(O)cc2O1 (stereo not drawn) | > 50 |  | > 300 | 19.4 | 2.26 |  |
| COc1ccc(-c2cc(=O)oc3c(O)c(O)ccc23)cc1OC | 0.052 |  | > 300 | > 300 | 9.89 |  |
| COc1cc(-c2cc(=O)oc3c(O)c(O)ccc23)cc(OC)c1OC | 0.299 |  | > 300 | > 300 | 9.65 |  |
| COc1ccc(C2CC(=O)Oc3c(O)cc(O)cc32)cc1OC (stereo not drawn) | > 50 |  | > 300 | 26.6 | 4.76 |  |
| O=c1cc(-c2ccc(O)c(O)c2)c2ccc(O)c(O)c2o1 | 7.05 |  | 188 | 189 | 10.5 |  |
| COc1cc(C2CC(=O)Oc3cc(O)cc(O)c32)ccc1O (stereo not drawn) | > 50 |  | > 300 | 55.9 | 9.01 |  |
| COc1ccc(C2CC(=O)Oc3ccc(O)cc32)cc1OC (stereo not drawn) | > 50 |  | > 300 | > 300 | 0.922 |  |
| COc1ccc(-c2cc(=O)oc3cc(O)cc(O)c23)cc1OC | 7.92 |  | > 300 | 104 | 1.37 |  |
| O=c1cc(-c2ccc(O)cc2)c2ccc(O)c(O)c2o1 | 9.45 |  | > 300 | 293 | 9.89 |  |
| COc1ccc(C2CC(=O)Oc3c(O)cc(O)cc32)cc1 (stereo not drawn) | > 50 |  | > 300 | 75.4 | 2.85 |  |
| O=C1CC(c2ccc(O)c(O)c2)c2ccc(O)c(O)c2O1 (stereo not drawn) | 0.283 |  | 72.5 | 0.43 | 9.6 |  |
| COc1ccc(C2CC(=O)Oc3cc(O)cc(O)c32)cc1OC (stereo not drawn) | > 50 |  | > 300 | 141 | 1.5 |  |
| COc1cc(C2CC(=O)Oc3cc(O)ccc32)ccc1O (stereo not drawn) | > 50 |  | > 300 | 82.5 | 9.38 |  |
| COc1ccc(C2CC(=O)Oc3c2ccc(O)c3O)cc1 (stereo not drawn) | 21.6 |  | 149 | 2.18 | 9.17 |  |
| O=c1cc(-c2cc(O)c(O)c(O)c2)c2ccc(O)c(O)c2o1 | 0.025 |  | 106 | 1.99 | 10.1 | Active |
| COc1ccc(C2CC(=O)Oc3cc(O)cc(O)c32)cc1 (stereo not drawn) | > 50 |  | > 300 | 83.7 | 1.06 |  |
